Here are results for five molecules from patent US20150342937A1, “BOWEL CLEANSING COMPOSITION” (priority 2013, published 2015).

SMILES strings stand for the structures.

For data set [1], the system named is intestinal bacteria. Description: Bacterial culture test of mixed stool/test solutions after gas measurement. Type of data set: cell-based. The conditions noted are these: average; mixed solutions cultured for 48 hours at SCL. The method, then:
Following the measurement of gas concentration as described above, the mixed solutions in the containers were submitted to a laboratory at the Seoul Medical Science Institute (SCL), a CAP accredited and Korean Society for Laboratory Medicine (KSLM)/Laboratory Medicine Foundation accredited institution, where they were cultured for 48 hours and measured for the resulting colony counts.

The conditions of data set [2]: scale proposed by Nunes et al. 2008; cited from earlier work.
Data set [3] relates to intestinal bacteria. The data set can be described thus: Bacterial culture test, 5% diluted solution of stool from one subject. Type of data set: cell-based. The conditions noted are these: 10 ml 5% stool suspension + 15 ml test solution. As to the method: With respect to Example 2 in which xylitol was used as the first cleansing ingredient, in order to test the antibacterial effect of the solution against intestinal bacteria, a 5% diluted solution of stool was prepared from a stool sample obtained from one subject. […] Then, each of these mixed solutions was split in half and submitted to two different testing institutions, the Seoul Medical Science Institute (SCL), which is a CAP accredited and KSLM/Laboratory Medicine Foundation accredited institution, and the Green Cross Laboratories (GC Labs), which is a KSLM accredited institution, for bacterial culture tests.

The conditions of data set [4]: 15 g intravenously over 30 minutes twice weekly for four weeks; phase I study 2013; cited from earlier work.

Turning to `OC[C@@H](O)[C@@H](O)[C@H](O)[C@H](O)CO` [compound 5, mannitol], in the data set on intestinal bacteria [1], the Colony count is 4.0 × 10^8 CFU/mL.
On to `OC[C@@H](O)[C@@H](O)[C@H](O)[C@H](O)CO` [mannitol], for which the “rate of adequate bowel cleansing” value in data set [2] is on record as 75%.
Turning to `OC[C@@H](O)[C@H](O)[C@@H](O)CO` [Reference Example 6, xylitol], in the data set with intestinal bacteria [3] (Green Cross Laboratories), the “Colony count (GC Labs)” value is reported as 10.2 × 10^6 CFU/mL. Moreover, the “Colony count (SCL)” value in the data set on intestinal bacteria [3] (Seoul Medical Science Institute) was 60 × 10^6 CFU/mL.
Regarding `O=C1O[C@H]([C@@H](O)CO)C(O)=C1O` [ascorbic acid], in data set [4], the “blood ascorbic acid level” value was “at least 350 mg/dL”.
In the case of `OC[C@@H](O)[C@@H](O)[C@H](O)[C@@H](O)CO` [compound 4, sorbitol], the Colony count in the data set on intestinal bacteria [1] is given as 4.5 × 10^8 CFU/mL.
